The values that follow come from patent publication US5206239A, “Pyrroloazepine derivatives” (Suntory Limited, priority 1990, dated 1993).

Test [1] has as its system α1. In words: Anti-α1 action: inhibition of norepinephrine-induced tonic contraction of isolated guinea pig thoracic aorta. Also on record: species or system guinea pig (Hartley, male). The conditions noted are these: tonic contraction induced by 10^-5 M norepinephrine = 100%. The method, then:
(§1) With respect to the compounds of the present invention, their anti-α1 action and anti-serotonin action were investigated by the testing methods which will be described below.
The thoracic aorta of each Hartley male guinea pig (body weight: 300-500 g) was excised. […] Taking the tonic contraction induced by 10^-5 M norepinephrine (NE) as 100%, the percent contractions upon addition of each test drug at 10^-8 and 10^-7 M were determined as anti-α1 action.

The nature of test [2]: Anti-serotonin action (anti-5-HT action): inhibition of serotonin-induced phasic contraction of isolated guinea pig superior mesenteric artery. Also on record: species or system guinea pig (Hartley, male). The conditions noted are these: phasic contraction induced by 10^-5 M serotonin = 100%, read-out: Anti 5-HT action (percent contraction, % of Control); for remaining activity at 1 µM: 10^-6 M test drug; for remaining activity at 0.1 µM: 10^-7 M test drug. Here is the method: as §1
Taking the phasic contraction induced by 10^-5 M serotonin as 100%, the percent contractions in the presence of each test drug at 10^-7 and 10^-6 M were determined as anti-5-HT action.

Like-named read-outs stand apart in the source and are kept apart here.

Take `O=C1CCN(Cc2ccccc2)C(=O)c2c1ccn2CCCCN1CCC(c2ccccc2)CC1` [Compound No. 48, 7-Benzyl-1-[4-(4-phenylpiperidin-1-yl)butyl]-6,7-dihydropyrrolo[2,3-c]azepine-4,8(1H,5H)-dione]: the “Anti α1 action (percent contraction, % of Control)” value in test [1] (10^-7 M test drug, 0.1 µM) was 37.7 % of Control. For the same compound, the “Anti α1 action (percent contraction, % of Control)” value in test [1] (10^-8 M test drug, 0.01 µM) is on record as 77.4 % of Control. For the same compound, in test [2], the remaining activity at 1 µM turned out to be 49% and the remaining activity at 0.1 µM is 88%.
`CN1CCC(=NO)c2ccn(CCCCN3CCC(c4ccccc4)CC3)c2C1=O` [Compound No. 51, 4-hydroxyimino-7-methyl-1-[4-(4-phenylpiperidin-1-yl)butyl]-6,7-dihydropyrrolo-[2,3-c]azepin-8(1H,5H)-one]: in test [1] (10^-7 M test drug, 0.1 µM), the “Anti α1 action (percent contraction, % of Control)” value is 30.8 % of Control. Also, in test [1] (10^-8 M test drug, 0.01 µM), the “Anti α1 action (percent contraction, % of Control)” value is on record as 74.9 % of Control. Besides, in test [2], the remaining activity at 1 µM was found to be 54.4% and the remaining activity at 0.1 µM amounted to 84.4%.
In the same order, the values of `CN1CCC(=O)c2ccn(CCCCN3CCC(C(O)(c4ccc(F)cc4)c4ccc(F)cc4)CC3)c2C1=O` [Compound No. 54, 1-[4-[4-[Bis(4-fluorophenyl)hydroxymethyl]-piperidin-1-yl]butyl]-7-methyl-6,7-dihydropyrrolo[2,3-c]azepine-4,8(1H,5H)-dione] are 26.0 % of Control, 90.4 % of Control, 14.7% and 62.9%.
For `CN1CCC(=O)c2ccn(CCCCN3CCC(C(=O)c4ccc(F)cc4)CC3)c2C1=O` [Compound No. 60, 1-[4-[4-(4-fluorobenzoyl)piperidin-1-yl]butyl]-7-methyl-6,7-dihydropyrrolo[2,3-c]azepine-4,8(1H,5H)-dione], the “Anti α1 action (percent contraction, % of Control)” value in test [1] (10^-7 M test drug, 0.1 µM) is reported as 20.5 % of Control. Moreover, the “Anti α1 action (percent contraction, % of Control)” value in test [1] (10^-8 M test drug, 0.01 µM) is 43.9 % of Control. In test [2] (guinea pig), the remaining activity at 1 µM came to 11.8% and the remaining activity at 0.1 µM is 62.9%.
For the compound `CN1CCC(=NO)c2ccn(CCCCN3CCC(C(=O)c4ccc(F)cc4)CC3)c2C1=O` [Compound No. 61, 1-[4-[4-(4-fluorobenzoyl)piperidin-1-yl]butyl]-4-hydroxyimino-7-methyl-6,7-dihydropyrrolo[2,3-c]azepin-8-(1H,5H)-one], the “Anti α1 action (percent contraction, % of Control)” value in test [1] (10^-7 M test drug, 0.1 µM) is reported as 21.4 % of Control. Moreover, the “Anti α1 action (percent contraction, % of Control)” value in test [1] (10^-8 M test drug, 0.01 µM) is reported as 44.7 % of Control. For the same compound, in test [2], the remaining activity at 1 µM was found to be 4.1% and the remaining activity at 0.1 µM amounted to 12.1%.
`CN1CCC(=NO)c2ccn(CCCCN3CCC(C(=O)c4ccc(F)cc4)CC3)c2C1=O.Cc1ccc(S(=O)(=O)O)cc1` [Compound No. 62, 1-[4-[4-(4-fluorobenzoyl)piperidin-1-yl]butyl]-4-hydroxyimino-7-methyl-6,7-dihydropyrrolo[2,3-c]azepin-8(1H,5H)-one p-toluenesulfonate]: the “Anti α1 action (percent contraction, % of Control)” value in test [1] (10^-7 M test drug, 0.1 µM) is 17.1 % of Control. In test [1] (10^-8 M test drug, 0.01 µM), the “Anti α1 action (percent contraction, % of Control)” value is recorded as 26.8 % of Control. Further, in test [2] (guinea pig), the remaining activity at 1 µM is 8.2% and the remaining activity at 0.1 µM was 47.4%.
For the compound `CCN1CCC(=NO)c2ccn(CCCCN3CCC(C(=O)c4ccc(F)cc4)CC3)c2C1=O` [Compound No. 65, 7-ethyl-1-[4-[4-(4-fluorobenzoyl)-piperidin-1-yl]butyl]-4-hydroxyimino-6,7-dihydro-pyrrolo[2,3-c]azepin-8-(1H,5H)-one], the “Anti α1 action (percent contraction, % of Control)” value in test [1] (10^-7 M test drug, 0.1 µM) was 9.9 % of Control. Further, in test [1] (10^-8 M test drug, 0.01 µM), the “Anti α1 action (percent contraction, % of Control)” value is given as 19.5 % of Control. In addition, in test [2], the remaining activity at 1 µM turned out to be 3.6% and the remaining activity at 0.1 µM was determined as 19.9%.
For the compound `O=C(c1ccc(F)cc1)C1CCN(CCCCn2ccc3c2C(=O)N(Cc2ccccc2)CCC3=NO)CC1` [Compound No. 66], the “Anti α1 action (percent contraction, % of Control)” value in test [1] (10^-7 M test drug, 0.1 µM) is listed as 10.4 % of Control. In addition, the “Anti α1 action (percent contraction, % of Control)” value in test [1] (10^-8 M test drug, 0.01 µM) is 19.3 % of Control. In test [2], the remaining activity at 1 µM came to 6.9% and the remaining activity at 0.1 µM came out at 77.6%.
Regarding `CCCN1CCC(=NO)c2ccn(CCCCN3CCC(C(=O)c4ccc(F)cc4)CC3)c2C1=O` [Compound No. 75, 1-[4-[4-(4-Fluorobenzoyl)piperidin-1-yl]butyl]-4-hydroxyimino-7-propyl-6,7-dihydropyrrolo[2,3-c]-azepin-8(1H,5H)-one], in test [1] (10^-7 M test drug, 0.1 µM), the “Anti α1 action (percent contraction, % of Control)” value is 17.9 % of Control. Besides, the “Anti α1 action (percent contraction, % of Control)” value in test [1] (10^-8 M test drug, 0.01 µM) is on record as 37.0 % of Control. For the same compound, in test [2], the remaining activity at 1 µM is 8.2% and the remaining activity at 0.1 µM was found to be 12.9%.
Consider `O=C1CCNC(=O)c2c1ccn2CCCCN1CCC(C(=O)c2ccc(F)cc2)CC1` [Compound No. 81, 1-[4-[4-(4-Fluorobenzoyl)piperidin-1-yl]butyl]-6,7-dihydropyrrolo[2,3-c]azepine-4,8(1H,5H)-dione], for which the “Anti α1 action (percent contraction, % of Control)” value is 28.9 % of Control in test [1] (10^-7 M test drug, 0.1 µM) and 57.5 % of Control in test [1] (10^-8 M test drug, 0.01 µM). Also, the remaining activity at 1 µM in test [2] is 14.3%. Moreover, the remaining activity at 0.1 µM in test [2] amounted to 57.1%.
With `CN1CCC(=NO)c2ccn(CCCCN3CCC(Oc4ccc(F)cc4)CC3)c2C1=O` [Compound No. 84, 1-[4-[4-(4-Fluorophenoxy)piperidin-1-yl]butyl]-4-hydroxyimino-7-methyl-6,7-dihydropyrrolo[2,3-c]-azepin-8(1H,5H)-one], the “Anti α1 action (percent contraction, % of Control)” value in test [1] (10^-7 M test drug, 0.1 µM) is recorded as 67.0 % of Control. In addition, the “Anti α1 action (percent contraction, % of Control)” value in test [1] (10^-8 M test drug, 0.01 µM) is on record as 86.5 % of Control. Also, in test [2], the remaining activity at 1 µM turned out to be 3.8% and the remaining activity at 0.1 µM came to 60%.
As to `CC(=O)ON=C1CCN(C)C(=O)c2c1ccn2CCCCN1CCC(C(=O)c2ccc(F)cc2)CC1` [Compound No. 91, 4-acetoxyimino-1-[4-[4-(4-fluorobenzoyl)piperidin-1-yl)butyl]-7-methyl-6,7-dihydropyrrolo[2,3-c]azepin-8(1H,5H)-one], the “Anti α1 action (percent contraction, % of Control)” value in test [1] (10^-7 M test drug, 0.1 µM) is 35.5 % of Control. Further, in test [1] (10^-8 M test drug, 0.01 µM), the “Anti α1 action (percent contraction, % of Control)” value was 58.2 % of Control. In test [2], the remaining activity at 1 µM was determined as 10.3% and the remaining activity at 0.1 µM was found to be 16.1%.
Consider `CN1CCC(=NOC(=O)c2ccccc2)c2ccn(CCCCN3CCC(C(=O)c4ccc(F)cc4)CC3)c2C1=O` [Compound No. 92, 4-benzoyloxyimino-1-[4-[4-(4-fluorobenzoylpiperidin)-1-yl]butyl]-7-methyl-6,7-dihydropyrrolo[2,3-c]azepin-8(1H,5H)-one], for which, in test [1] (10^-7 M test drug, 0.1 µM), the “Anti α1 action (percent contraction, % of Control)” value is given as 21.5 % of Control. Further, the “Anti α1 action (percent contraction, % of Control)” value in test [1] (10^-8 M test drug, 0.01 µM) was 49.3 % of Control. For the same compound, in test [2], the remaining activity at 1 µM was found to be 12.5% and the remaining activity at 0.1 µM was found to be 48.5%.
